Measurements from patent publication US20250177412A1, “SMALL-MOLECULE INHIBITORS TARGETING THE BOB1/OCT1 INTERFACE” (NANTES UNIVERSITE, priority 2022, published 2025).

How the values were obtained:
NIH3T3 cells = assay: MTT assay; type: cell-based; conditions: data not shown
PBMCs = assay: T cell recall assay (qPCR and intracellular staining); type: cell-based, human
Procedure: Total PBMCs were plated into 96-well round-bottom plates at 0.5×10^6 cells/well and were stimulated with anti-CD3/CD28 Dynabeads (Gibco Life Technologies) at a bead/cell ratio of 0.2:1 in the presence of compound 005 (10 μM) or vehicle (DMSO) for 6 hours to induce polyclonal primary responses. To induce recall responses, cells were stimulated with beads for two days, allowed to rest for eight days in medium supplemented with IL-2 (10 U/mL) and re-stimulated with anti-CD3/CD28 beads for the last 6 hours in the presence of compound 005 ([…]) or vehicle. Expression of Th1-, Th2-, Th17-, and Treg-associated cytokines and transcription factors was assessed by qPCR. For intracellular staining, cells were re-stimulated for 10 hours with anti-CD3/CD28 beads, and Brefeldin A (10 μg/mL, Sigma) was added to the medium 4 hours after the start of re-stimulation. Dead cells were excluded using the LIVE/DEAD® Fixable Aqua Dead Cell Stain Kit (Life Technologies). Subsequently, cells were surface-stained with CD3-BUV395, CD4-BUV737, CD8-Violet650 (all three from BDHorizon), and CD161-PE-Cy7 (from Biolegend) at 4° C. for 30 min, followed by incubation with Fixation/Permeabilization working solution (eBioscience), washed with Permeabilization Buffer and stained with IL-17A-PE and IFNγ-BV711 (both from BD Biosciences). Cells were resuspended in ice-cold FACS buffer (0.5% BSA, 2 mM EDTA and 50 U/mL penicillin/streptomycin in PBS). Flow cytometry data were collected on BD FACSCelesta™ and analyzed using FlowJo™ cell analysis software (FlowJo, LLC).
Total RNA was extracted from PBMCs using the RNeasy Micro Kit (Qiagen) according to the manufacturer's protocol. RNA was processed for cDNA synthesis (Fermentas) and analyzed by qPCR with TaqMan gene expression assays for IFNG (Hs00989291_m1), IL-2 (Hs00174114_m1), TNF (Hs00174128_m1), TBX21 (Hs00203436_m1), IL-4 (Hs00174122_m1), GATA3 (Hs00231122_m1), IL-17A (Hs00174383_m1), IL-17F (Hs00369400_m1), IL-21 (Hs00222327_m1), IL-22 (Hs01574154_m1), RORC (Hs01076122_m1), IL-10 (Hs00961622_m1), FOXP3 (Hs01085834_m1), POU2AF1 (Hs01573371_m1) (Thermofisher) using Real-Time PCR QuantStudio3 PCR System (Applied Biosystems). Expressions of all genes were normalized to the expression of GAPDH (4310884E) as housekeeping gene and presented as fold change relative to the reference sample.

Cc1ccc(NC(=O)C2CN(c3nc(NCCCc4ccc(F)cc4)nc(NCCC(=O)O)n3)c3ccccc3O2)cc1Cl (centres unmarked) [compound 005, 3-((4-(2-((3-chloro-4-methylphenyl)carbamoyl)-2,3-dihydro-4H-benzo[b][1,4]oxazin-4-yl)-6-((3-(4-fluorophenyl)propyl)amino)-1,3,5-triazin-2-yl)amino)propanoic acid]
concentration showing toxicity (NIH3T3 cells): ≥ 80 µM | TNF expression (PBMCs; initial activation, 6 hours-stimulated cells, 10 μM, data not shown): significant decrease | IL-17A mRNA, median percentage decrease (PBMCs; re-stimulated (recall) cells): 43% | IL-17F mRNA, median percentage decrease (PBMCs; re-stimulated (recall) cells): 27% | expression of IL-17A by CD4+ T cells (protein, intracellular staining) (PBMCs; re-stimulated cells): suppressed
